This passage reports IC50 results from ChEMBL document CHEMBL4049442, “Design, Synthesis, and Biological Evaluation of Dimorpholine Substituted Thienopyrimidines as Potential Class I PI3K/mTOR Dual Inhibitors” (J Med Chem, 2017).

Test [1] concerns SK-OV-3. The test can be described thus: cells. The note with it: Homo sapiens, SK-OV-3, 72 h.
Test [2] deals with U-87 MG. As to the kind of experiment: cells. To be noted: Homo sapiens, 72 h.
Test [3] has as its target Serine/threonine-protein kinase mTOR (Homo sapiens, UniProt P42345). As to the kind of experiment: Inhibition of recombinant human N-terminal FLAG-tagged mTOR (1362 to end residues) expressed in baculovirus infected Sf21 insect cells assessed as reduction in ULight-4E-BP1 phosphorylation after 30 mins by lance ultra assay.
In test [4] the target is PI3-kinase p110-alpha/p85-alpha (Homo sapiens, UniProt P42336). As to the kind of experiment: Inhibition of full length recombinant human N-terminal His-tagged PI3K p110alpha/p85alpha expressed in baculovirus using PIP2 as substrate after 1 hr by kinase-glo luminescence assay.
Sequence of PI3-kinase p110-alpha/p85-alpha (P27986 whole entry): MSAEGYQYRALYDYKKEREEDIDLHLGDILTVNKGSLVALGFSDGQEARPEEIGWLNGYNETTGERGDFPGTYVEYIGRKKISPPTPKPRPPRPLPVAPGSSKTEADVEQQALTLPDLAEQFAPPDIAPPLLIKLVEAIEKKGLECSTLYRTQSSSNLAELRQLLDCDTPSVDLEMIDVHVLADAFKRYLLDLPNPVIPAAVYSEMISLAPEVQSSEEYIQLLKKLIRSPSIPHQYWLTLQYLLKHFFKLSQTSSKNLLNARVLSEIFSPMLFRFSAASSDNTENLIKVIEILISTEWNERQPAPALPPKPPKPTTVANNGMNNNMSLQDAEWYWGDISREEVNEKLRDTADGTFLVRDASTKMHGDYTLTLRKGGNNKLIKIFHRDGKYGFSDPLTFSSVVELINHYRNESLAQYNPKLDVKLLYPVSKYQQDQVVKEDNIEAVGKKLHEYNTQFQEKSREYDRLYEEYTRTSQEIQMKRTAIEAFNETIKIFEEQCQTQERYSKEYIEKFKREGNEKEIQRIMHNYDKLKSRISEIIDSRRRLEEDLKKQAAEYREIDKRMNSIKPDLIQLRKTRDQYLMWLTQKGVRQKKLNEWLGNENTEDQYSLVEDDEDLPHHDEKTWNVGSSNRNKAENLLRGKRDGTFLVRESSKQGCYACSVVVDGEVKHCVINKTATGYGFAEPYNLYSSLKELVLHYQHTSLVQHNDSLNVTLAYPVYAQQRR
Sequence of PI3-kinase p110-alpha/p85-alpha (P42336 whole entry): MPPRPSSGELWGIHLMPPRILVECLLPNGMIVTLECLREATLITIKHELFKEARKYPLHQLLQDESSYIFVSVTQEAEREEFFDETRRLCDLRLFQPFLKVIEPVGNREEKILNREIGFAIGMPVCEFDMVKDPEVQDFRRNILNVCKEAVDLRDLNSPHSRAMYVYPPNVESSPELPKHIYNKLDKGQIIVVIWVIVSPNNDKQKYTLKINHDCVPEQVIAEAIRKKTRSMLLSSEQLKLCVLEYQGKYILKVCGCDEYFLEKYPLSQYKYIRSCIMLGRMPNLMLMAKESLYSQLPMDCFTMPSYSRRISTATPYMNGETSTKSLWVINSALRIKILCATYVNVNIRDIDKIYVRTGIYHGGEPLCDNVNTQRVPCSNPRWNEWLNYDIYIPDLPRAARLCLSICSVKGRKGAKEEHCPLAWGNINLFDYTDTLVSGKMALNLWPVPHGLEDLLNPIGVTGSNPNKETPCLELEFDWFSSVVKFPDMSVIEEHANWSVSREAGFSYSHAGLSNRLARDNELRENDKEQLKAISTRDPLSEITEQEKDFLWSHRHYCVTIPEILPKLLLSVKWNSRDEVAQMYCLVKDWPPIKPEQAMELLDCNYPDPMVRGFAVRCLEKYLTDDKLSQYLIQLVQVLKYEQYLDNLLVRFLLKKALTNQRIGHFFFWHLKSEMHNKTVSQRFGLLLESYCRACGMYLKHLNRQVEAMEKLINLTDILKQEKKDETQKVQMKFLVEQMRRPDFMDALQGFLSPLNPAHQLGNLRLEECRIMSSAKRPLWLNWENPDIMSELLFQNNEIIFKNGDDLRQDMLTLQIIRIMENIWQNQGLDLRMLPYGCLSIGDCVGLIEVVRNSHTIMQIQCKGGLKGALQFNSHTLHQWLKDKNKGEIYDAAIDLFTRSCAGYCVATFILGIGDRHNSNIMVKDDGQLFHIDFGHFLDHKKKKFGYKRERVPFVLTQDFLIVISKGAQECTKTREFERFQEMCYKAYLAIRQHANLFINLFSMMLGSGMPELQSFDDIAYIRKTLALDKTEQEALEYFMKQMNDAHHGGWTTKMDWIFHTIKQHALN
In test [5] the test system is LNCaP. The test can be described thus: cells. To be noted: Homo sapiens, 72 h.
The subject of test [6] is PC-3. The test can be described thus: cells. The note with it: Homo sapiens, PC-3, 72 h.

As to `OCc1cc2nc(N3CCSCC3)nc(N3CCOCC3)c2s1`, the IC50 in test [1] was 2.18 µM; in test [2] it was over 25 µM; in test [3], 0.603 µM; in test [4] it was 0.249 µM; in test [5], 4.2 µM; in test [6] it was 2.26 µM.

In the case of `C[C@@H]1CN(c2nc(N3CCOCC3)c3sc(-c4ccccn4)cc3n2)C[C@H](C)O1`, the 50% inhibitory concentration (IC50) in test [1] was 0.99 µM; in test [2], 4.45 µM; in test [3], 0.27 µM; in test [4] it was 0.694 µM; in test [5], 4.43 µM; in test [6] it was 2.75 µM.

For `CN1CCN(c2nc(N3CCOCC3)c3sc(CO)cc3n2)CC1`, the IC50 in test [3] is over 2 µM; in test [4], 1.03 µM.

Take `C[C@@H]1CN(c2nc(N3CCOCC3)c3sc(C(N)=O)cc3n2)C[C@H](C)O1`: the IC50 in test [1] was 7.11 µM; in test [2] it was over 25 µM; in test [3], 0.865 µM; in test [4], 0.191 µM; in test [5], 3.27 µM; in test [6], 4.32 µM.

On to `OCc1cc2nc(N3CCOCC3)nc(N3CCOCC3)c2s1`, for which the IC50 is 8.24 µM in test [1]; 17.5 µM in test [2]; over 2 µM in test [3]; 0.216 µM in test [4]; 2.06 µM in test [5]; 6 µM in test [6].

Turning to `C[C@@H]1CN(c2nc(N3CCOCC3)c3sc(-c4ccnn4C)cc3n2)C[C@H](C)O1`, the IC50 in test [3] was over 2 µM; in test [4], 1.24 µM.

As for `C[C@@H]1CN(c2nc(N3CCOCC3)c3sc(-c4ccoc4)cc3n2)C[C@H](C)O1`, the IC50 in test [1] is 21.8 µM; in test [2], over 25 µM; in test [3], 0.222 µM; in test [4], 3.56 µM; in test [5], 6.77 µM; in test [6], 5.92 µM.

Take `CS(=O)(=O)N1CCN(c2nc(N3CCOCC3)c3sc(CO)cc3n2)CC1`: the half-maximal inhibitory concentration (IC50) was 23.3 µM in test [1]; over 25 µM in test [2]; over 2 µM in test [3]; 0.279 µM in test [4]; 6.16 µM in test [5]; 15 µM in test [6].

Regarding `C[C@@H]1CN(c2nc(N3CCOCC3)c3sc(-c4ccncc4)cc3n2)C[C@H](C)O1`, the 50% inhibitory concentration (IC50) is over 2 µM in test [3] and over 10 µM in test [4].

In the case of `c1cc2nc(N3CCOCC3)nc(N3CCOCC3)c2s1`, the figures for the IC50 in test [3] and in test [4] were over 2 µM and 1.87 µM, respectively.

Take `C[C@@H]1CN(c2nc(N3CCOCC3)c3sc(-c4ccccc4)cc3n2)C[C@H](C)O1`: the half-maximal inhibitory concentration (IC50) was over 2 µM in test [3] and over 10 µM in test [4].

As to `C[C@@H]1COCCN1c1nc(N2CCOCC2)c2sc(CO)cc2n1`, the IC50 in test [1] is 2.17 µM; in test [2], over 25 µM; in test [3], 0.335 µM; in test [4], 0.299 µM; in test [5], 2.63 µM; in test [6], 1.32 µM.

With `OCc1cc2nc(N3CCOc4ccccc43)nc(N3CCOCC3)c2s1`, the IC50 in test [1] was 2.89 µM; in test [2], 21.2 µM; in test [3], 0.336 µM; in test [4] it was 0.681 µM; in test [5] it was 1.82 µM; in test [6] it was 2.67 µM.

As to `CCC(O)c1cc2nc(N3C[C@@H](C)O[C@@H](C)C3)nc(N3CCOCC3)c2s1` (stereo partly specified), the 50% inhibitory concentration (IC50) in test [1] is 9.12 µM; in test [2], over 25 µM; in test [3] it was over 2 µM; in test [4], 0.239 µM; in test [5] it was 1.6 µM; in test [6], 2.97 µM.

Regarding `C[C@@H]1CN(c2nc(N3CCOCC3)c3sc(-c4ccccc4O)cc3n2)C[C@H](C)O1`, the IC50 in test [1] was 1.8 µM; in test [2], 9.88 µM; in test [3], 0.225 µM; in test [4], over 10 µM; in test [5], 2.38 µM; in test [6], 2.49 µM.

Consider `CC(=O)c1cc2nc(N3CCOCC3)nc(N3CCOCC3)c2s1`, for which the IC50 was over 2 µM in test [3] and 0.675 µM in test [4].

In the case of `O=C(O)c1cc2nc(N3CCOCC3)nc(N3CCOCC3)c2s1`, the concentration for half-maximal inhibition (IC50) was over 25 µM in test [1]; 2.44 µM in test [2]; over 2 µM in test [3]; 0.237 µM in test [4]; 23.6 µM in test [5]; over 25 µM in test [6].

`C[C@@H]1CN(c2nc(N3CCOCC3)c3sc(-c4ccc(N)nc4)cc3n2)C[C@H](C)O1`: the IC50 in test [1] is 2.9 µM; in test [2], over 25 µM; in test [3], 0.07 µM; in test [4] it was 0.165 µM; in test [5] it was 1.13 µM; in test [6] it was 7 µM.

For the molecule `Cc1c(-c2ccn[nH]2)sc2c(N3CCOCC3)nc(N3C[C@@H](C)O[C@@H](C)C3)nc12`, the IC50 in test [1] amounted to 0.83 µM; in test [2], 8.76 µM; in test [3], 0.073 µM; in test [4], 0.197 µM; in test [5] it was 1.1 µM; in test [6], 1.74 µM.

In the case of `c1nc2c(N3CCOCC3)nc(N3CCOCC3)nc2[nH]1`, the IC50 in test [3] is over 2 µM; in test [4], over 10 µM.

As to `c1cc2c(N3CCOCC3)nc(N3CCOCC3)nc2[nH]1`, the IC50 in test [3] is over 2 µM; in test [4] it was 6.18 µM.

For the molecule `C[C@@H]1CN(c2nc(N3CCOCC3)c3sc(C(O)Cc4ccccc4)cc3n2)C[C@H](C)O1` (stereo partly specified), the half-inhibitory concentration (IC50) is over 2 µM in test [3] and 2.05 µM in test [4].

Take `C[C@@H]1CN(c2nc(N3CCOCC3)c3sc(-c4ccc[nH]4)cc3n2)C[C@H](C)O1`: the half-maximal inhibitory concentration (IC50) in test [1] is 18.9 µM; in test [2], over 25 µM; in test [3], 0.172 µM; in test [4] it was 4.18 µM; in test [5], 2.39 µM; in test [6], 3.05 µM.

For the molecule `C[C@@H]1CN(c2nc(N3CCOCC3)c3sc(-c4ccco4)cc3n2)C[C@H](C)O1`, the half-inhibitory concentration (IC50) in test [1] is 5.91 µM; in test [2], 12.8 µM; in test [3], 0.109 µM; in test [4], 2.2 µM; in test [5] it was 2.64 µM; in test [6], over 25 µM.

With `C[C@@H]1CN(c2nc(N3CCOCC3)c3sc(-c4cn[nH]c4)cc3n2)C[C@H](C)O1`, the half-inhibitory concentration (IC50) is 10.1 µM in test [1]; over 25 µM in test [2]; 0.427 µM in test [3]; 0.995 µM in test [4]; 4.05 µM in test [5]; over 25 µM in test [6].

Take `CS(=O)(=O)N1CCN(Cc2cc3nc(N4CCOCC4)nc(N4CCOCC4)c3s2)CC1`: the IC50 in test [3] is over 2 µM; in test [4], 4.82 µM.

For `C[C@@H]1CN(c2nc(N3CCOCC3)c3sc(-c4cncnc4)cc3n2)C[C@H](C)O1`, the IC50 in test [3] was over 2 µM; in test [4] it was 9.47 µM.

In the case of `C[C@@H]1CN(c2nc(N3CCOCC3)c3sc(-c4cnn(C)c4)cc3n2)C[C@H](C)O1`, the values for the half-maximal inhibitory concentration (IC50) in test [3] and in test [4] were over 2 µM and 4.95 µM, respectively.

For the molecule `C[C@@H]1CN(c2nc(N3CCOCC3)c3sc(-c4ccsc4)cc3n2)C[C@H](C)O1`, the figures for the 50% inhibitory concentration (IC50) in test [3] and in test [4] were over 2 µM and over 10 µM, respectively.

In the case of `COc1ccc(-c2cc3nc(N4C[C@@H](C)O[C@@H](C)C4)nc(N4CCOCC4)c3s2)cn1`, the figures for the IC50 in test [3] and in test [4] were over 2 µM and over 10 µM, respectively.

Consider `C[C@@H]1CN(c2nc(N3CCOCC3)c3sc(-c4cccc5[nH]ncc45)cc3n2)C[C@H](C)O1`, for which the IC50 in test [3] was over 2 µM; in test [4], over 10 µM.
